Patent publication US12600709B2, “Nonpeptide somatostatin type 5 receptor agonists and uses thereof” (Crinetics Pharmaceuticals, Inc., priority 2019, dated 2026)

Target: T1, human somatostatin receptor subtype 5 (Homo sapiens, UniProt P35346)
T1 construct: expressed in transfected cells
Assay: cAMP assay for SST5R (inhibition of cAMP in CHO-K1 cells)
Assay type: cell-based
Details: Table A; inhibition of cAMP via human SST5 receptor; read-out: SST5 potency
Source text: General overview: All five SSTR subtypes are Gi coupled G-protein coupled receptors (GPCRs) that lead to decreases in intracellular cyclic AMP (cAMP) when activated by an agonist. Therefore, measurement of intracellular cAMP levels can be used to assess whether compounds of the invention are agonists of SSTR subtypes (John Kelly, Troy Stevens, W. Joseph Thompson, and Roland Seifert, Current Protocols in Pharmacology, 2005, 2.2.1-2.2). One example of an intracellular cAMP assay is described below.
cAMP Assay Protocol for SST5R:
Four days prior to the assay, 2,000 Chinese hamster ovary cells (CHO-K1, ATCC #CCL-61) stably expressing the human somatostatin receptor subtype 5 are plated in each well of a 96-well tissue culture-treated plate in Ham's F12 growth media (ThermoFisher #10-080-CM) supplemented with 10% donor bovine serum (Gemini Bio-Products #100-506), 100 U/mL penicillin; 100 µg/mL streptomycin; 2 mM L-glutamine (Gemini Bio-Products #400-110) and 0.25 mg/mL G418 Sulfate (GoldBio #108321-42-2). The cells are cultured at 37° C., 5% CO2 and 95% humidity. On the day of the assay, the media is aspirated and the cells are treated with 50 μL of 1.6 μM NKH477 (Sigma #N3290) plus various dilutions of compounds of the invention in assay buffer [1× Hank's Balanced Salt Solution (ThermoFisher #SH3058802), 0.5 mM HEPES pH 7.4, 0.1% bovine serum albumin, 0.2 mM 3-Isobutyl-1-methylxanthine (IBMX, VWR #200002-790)]. The cells are incubated for 20 minutes at 37° C. […] The cells are treated with 50 μL of lysis buffer (HRTF cAMP kit, Cisbio) for 30 minutes and then the lysate is diluted to 250 μL with assay buffer. The lysate is transferred to 384-well plates and cAMP detection and visualization antibodies are added and incubated for 1-24 hours at room temperature. The time-resolved fluorescent signal is read with a Tecan M1000Pro multiplate reader. The intracellular cAMP concentrations are calculated by regression to a standard curve and are plotted vs. the concentration of the compounds of the invention and the EC50 of the compounds are calculated using standard methods. All data manipulations are in GraphPad Prism v6 or v7.

T1 sequence (P35346 whole entry): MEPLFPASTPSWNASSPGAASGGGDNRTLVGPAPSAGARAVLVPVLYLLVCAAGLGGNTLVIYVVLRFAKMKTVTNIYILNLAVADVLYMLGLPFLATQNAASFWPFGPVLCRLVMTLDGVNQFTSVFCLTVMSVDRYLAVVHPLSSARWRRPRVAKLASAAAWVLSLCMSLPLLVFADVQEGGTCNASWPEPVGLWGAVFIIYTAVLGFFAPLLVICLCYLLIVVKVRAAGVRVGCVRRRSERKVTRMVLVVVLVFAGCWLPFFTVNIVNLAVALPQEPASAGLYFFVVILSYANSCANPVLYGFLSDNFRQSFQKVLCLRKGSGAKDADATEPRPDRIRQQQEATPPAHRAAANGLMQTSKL

Row | Compound | EC50 [nM]
1 | C[C@H](NC(=O)c1ncc(C#N)c(-c2cc(F)cc(F)c2)c1N1CC[C@](C)(N)C1)C1CC1 [4-3, 3-[(3S)-3-amino-3-methylpyrrolidin-1-yl]-5-cyano-N-[(1S)-1-cyclopropylethyl]-4-(3,5-difluorophenyl)pyridine-2-carboxamide] | < 10
2 | C[C@]1(N)CCN(c2c(C(=O)NC34CCC(CC3)C4)ccnc2-c2cc(F)cc(F)c2)C1 [3-5, 3-[(3S)-3-amino-3-methylpyrrolidin-1-yl]-N-{bicyclo[2.2.1]heptan-1-yl}-2-(3,5-difluorophenyl)pyridine-4-carboxamide] | 10 to 100
3 | Cc1cccc2[nH]c(-c3cncc(C(=O)N4CCC(C(C)(C)C)C4)c3N3CC[C@](C)(N)C3)nc12 (stereo partly drawn) [2-27, (3S)-1-[3-(3-tert-butylpyrrolidine-1-carbonyl)-5-(4-methyl-1H-1,3-benzodiazol-2-yl)pyridin-4-yl]-3-methylpyrrolidin-3-amine] | < 10
4 | Cc1cccc2[nH]c(-c3cncc(C(=O)N4C[C@@H](C)O[C@@H](C)C4)c3N3CC[C@](C)(N)C3)nc12 [2-28, (3S)-1-{3-[(2R,6S)-2,6-dimethylmorpholine-4-carbonyl]-5-(4-methyl-1H-1,3-benzodiazol-2-yl)pyridin-4-yl}-3-methylpyrrolidin-3-amine] | 10 to 100
5 | Cc1cccc2[nH]c(-c3cncc(C(=O)NC4CCC(F)(F)CC4)c3N3CC[C@](C)(N)C3)nc12 [2-17, 4-[(3S)-3-amino-3-methylpyrrolidin-1-yl]-N-(4,4-difluorocyclohexyl)-5-(4-methyl-1H-1,3-benzodiazol-2-yl)pyridine-3-carboxamide] | 10 to 100
6 | C[C@]1(N)CCN(c2c(C(=O)NC3CCCC3)ccnc2-c2cc(F)cc(F)c2)C1 [3-8, 3-[(3S)-3-amino-3-methylpyrrolidin-1-yl]-N-cyclopentyl-2-(3,5-difluorophenyl)pyridine-4-carboxamide] | 10 to 100
7 | Cc1cccc2[nH]c(-c3cncc(C(=O)N4CC(C)(C)C4)c3N3CC[C@](C)(N)C3)nc12 [2-21, (3S)-1-[3-(3,3-dimethylazetidine-1-carbonyl)-5-(4-methyl-1H-1,3-benzodiazol-2-yl)pyridin-4-yl]-3-methylpyrrolidin-3-amine] | 10 to 100
8 | C[C@]1(N)CCN(c2c(C(=O)N[C@H]3C[C@@H](F)C3)cncc2-c2cc(F)cc(F)c2)C1 [1-59, 4-[(3S)-3-amino-3-methylpyrrolidin-1-yl]-5-(3,5-difluorophenyl)-N-[cis-3-fluorocyclobutyl]pyridine-3-carboxamide] | < 10
9 | CC(F)(F)CNC(=O)c1cncc(-c2cc(F)cc(F)c2)c1N1CC[C@](C)(N)C1 [1-62, 4-[(3S)-3-amino-3-methylpyrrolidin-1-yl]-5-(3,5-difluorophenyl)-N-(2,2-difluoropropyl)pyridine-3-carboxamide] | < 10
10 | C[C@H](NC(=O)c1cnc(C#N)c(-c2cc(F)cc(Cl)c2)c1N1C[C@@H](N)[C@H](F)C1)C1CC1 [1-138, 4-[(3R,4R)-3-amino-4-fluoropyrrolidin-1-yl]-5-(3-chloro-5-fluorophenyl)-6-cyano-N-[(1S)-1-cyclopropylethyl]pyridine-3-carboxamide] | < 10
11 | C[C@H](NC(=O)c1ncc(C(N)=O)c(-c2cc(F)cc(F)c2)c1N1CC[C@](C)(N)C1)C1CC1 [4-5, 3-[(3S)-3-amino-3-methylpyrrolidin-1-yl]-N2-[(1S)-1-cyclopropylethyl]-4-(3,5-difluorophenyl)pyridine-2,5-dicarboxamide] | > 1000
12 | Cc1cccc2[nH]c(-c3cncc(C(=O)NC(C)CC(F)(F)F)c3N3CC[C@](C)(N)C3)nc12 (stereo partly drawn) [2-32, 4-[(3S)-3-amino-3-methylpyrrolidin-1-yl]-5-(4-methyl-1H-1,3-benzodiazol-2-yl)-N-(4,4,4-trifluorobutan-2-yl)pyridine-3-carboxamide] | < 10
13 | C[C@H](NC(=O)c1cncc(-c2cccc(OC(F)F)c2)c1N1CC[C@](C)(N)C1)C1CC1 [1-149, 4-[(3S)-3-amino-3-methylpyrrolidin-1-yl]-N-[(1S)-1-cyclopropylethyl]-5-[3-(difluoromethoxy)phenyl]pyridine-3-carboxamide] | < 10
14 | C[C@H](NC(=O)c1ccnc(-c2cc(F)cc(F)c2)c1N1CC[C@](C)(N)C1)c1ccccc1 [3-3, 3-[(3S)-3-amino-3-methylpyrrolidin-1-yl]-2-(3,5-difluorophenyl)-N-[(1S)-1-phenylethyl]pyridine-4-carboxamide] | 100 to 1000
15 | COc1ncc(C(=O)N[C@@H](C)C2CC2)c(N2CC[C@](C)(N)C2)c1-c1cc(F)cc(F)c1 [1-141, 4-[(3S)-3-amino-3-methylpyrrolidin-1-yl]-N-[(1S)-1-cyclopropylethyl]-5-(3,5-difluorophenyl)-6-methoxypyridine-3-carboxamide] | < 10
16 | C[C@@H](C1CC1)N(C)C(=O)c1cnc(C#N)c(-c2cc(F)cc(F)c2)c1N1CC[C@](C)(N)C1 [1-219, 4-[(3S)-3-amino-3-methylpyrrolidin-1-yl]-6-cyano-N-[(1S)-1-cyclopropylethyl]-5-(3,5-difluorophenyl)-N-methylpyridine-3-carboxamide] | < 10
17 | CCNC(=O)c1cncc(-c2nc3c(C)cccc3[nH]2)c1N1CC[C@](C)(N)C1 [2-1, 4-[(3S)-3-amino-3-methylpyrrolidin-1-yl]-N-ethyl-5-(4-methyl-1H-1,3-benzodiazol-2-yl)pyridine-3-carboxamide] | 10 to 100
18 | COc1ncc(C(=O)N2CCCCC2)c(N2CC[C@H](N)C2)c1-c1cc(F)cc(F)c1 [1-235, (3S)-1-[3-(3,5-difluorophenyl)-2-methoxy-5-(piperidine-1-carbonyl)pyridin-4-yl]pyrrolidin-3-amine] | > 1000
19 | C[C@]1(N)CCN(c2c(C(=O)NCC3CCC3)cncc2-c2cc(F)cc(F)c2)C1 [1-33, 4-[(3S)-3-amino-3-methylpyrrolidin-1-yl]-N-(cyclobutylmethyl)-5-(3,5-difluorophenyl)pyridine-3-carboxamide] | < 10
20 | Cc1cccc2[nH]c(-c3cncc(C(=O)N[C@H](C)C(F)(F)F)c3N3CC[C@](C)(N)C3)nc12 [2-18, 4-[(3S)-3-amino-3-methylpyrrolidin-1-yl]-5-(4-methyl-1H-1,3-benzodiazol-2-yl)-N-[(2R)-1,1,1-trifluoropropan-2-yl]pyridine-3-carboxamide] | < 10
21 | Cc1ncc(C(=O)N[C@@H](C)C2CC2)c(N2CC[C@](C)(N)C2)c1-c1cnn(C)c1 [1-148, 4-[(3S)-3-amino-3-methylpyrrolidin-1-yl]-N-[(1S)-1-cyclopropylethyl]-6-methyl-5-(1-methyl-1H-pyrazol-4-yl)pyridine-3-carboxamide] | < 10
22 | Cc1cccc2[nH]c(-c3cncc(C(=O)N4CCc5ccccc54)c3N3CC[C@](C)(N)C3)nc12 [2-34, (3S)-1-[3-(2,3-dihydro-1H-indole-1-carbonyl)-5-(4-methyl-1H-1,3-benzodiazol-2-yl)pyridin-4-yl]-3-methylpyrrolidin-3-amine] | 10 to 100
23 | Cc1cc(-c2cncc(C(=O)N[C@@H](C)C3CC3)c2N2CC[C@](C)(N)C2)cc(C)n1 [1-131, 4-[(3S)-3-amino-3-methylpyrrolidin-1-yl]-N-[(1S)-1-cyclopropylethyl]-2′,6′-dimethyl-[3,4′-bipyridine]-5-carboxamide] | < 10
24 | C[C@@H](NC(=O)c1cncc(-c2cc(F)cc(F)c2)c1N1CC[C@](C)(N)C1)C(F)(F)F [1-53, 4-[(3S)-3-amino-3-methylpyrrolidin-1-yl]-5-(3,5-difluorophenyl)-N-[(2R)-1,1,1-trifluoropropan-2-yl]pyridine-3-carboxamide] | < 10
25 | Cc1cc(C)cc(-c2cncc(C(=O)NC3CCCC(F)(F)C3)c2N2CC[C@](C)(N)C2)c1 (stereo partly drawn) [1-14, 4-[(3S)-3-amino-3-methylpyrrolidin-1-yl]-N-(3,3-difluorocyclohexyl)-5-(3,5-dimethylphenyl)pyridine-3-carboxamide] | < 10
26 | N#Cc1ncc(C(=O)NC23CC(C2)C3)c(N2CC[C@H](N)C2)c1-c1cccc(Cl)c1 [1-84, 4-[(3S)-3-aminopyrrolidin-1-yl]-N-{bicyclo[1.1.1]pentan-1-yl}-5-(3-chlorophenyl)-6-cyanopyridine-3-carboxamide] | < 10
27 | Cn1cc(CNC(=O)c2cnc(C#N)c(-c3cc(F)cc(F)c3)c2N2CC[C@](C)(N)C2)cn1 [1-107, 4-[(3S)-3-amino-3-methylpyrrolidin-1-yl]-6-cyano-5-(3,5-difluorophenyl)-N-[(1-methyl-1H-pyrazol-4-yl)methyl]pyridine-3-carboxamide] | 10 to 100
